# Data reported in patent publication US12319655B2, “RAF kinase inhibitors and methods of use thereof” (Deciphera Pharmaceuticals, LLC, priority 2021, dated 2025).
# How the values were obtained:
# [1] = target: C-Raf kinase (SEQ. ID NO: 3) (Homo sapiens (Human), UniProt P04049, Y340D/Y341D); experiment: Biochemical Assay for C-Raf (1); details: Table J, assay version (1); read-out: CRAF (1) IC50
# Summary of the method: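 Coupled pyruvate kinase/LDH assay tracking NADH oxidation at 340 nm, with 0.43 nM C-Raf, 30.1 nM MEK and 1 mM ATP in pH 7.5 Tris buffer (15 mM MgCl2, 1% DMSO final). Read continuously for 6 h at 30 °C, rate taken from the 4–5 h window. IC50 from four-parameter fit of percent inhibition.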
# [2] = tested on: WM3928 cells; experiment: WM3928 Cell Proliferation Assay (1); type: cell-based
# Method: WM3928 Cell Proliferation Assay (1)
# WM3928 cells (#WM3928-01-0001) are obtained from Rockland Immunochemicals Inc (Gilbertsville, PA). Briefly, cells were grown in MCDB 153 medium (Sigma, #M7403, St. Louis, MO) supplemented with 20% Leibovitz's L-15 (ThermoFisher #11415-064, Waltham, MA), 2% heat inactivated fetal bovine serum (ThermoFisher, #A3840001, Waltham, MA), 5 μg/mL Insulin (Bovine Pancreas) (Sigma, #I0516, St. Louis, MO), 1.68 mM Calcium Chloride (Sigma, #C-34006, St. Louis, MO) and 1% Penicillin/Streptomycin/L-Glutamine (ThermoFisher #10378016, Waltham, MA) at 37° C., 5% CO2, and 95% humidity. Cells are expanded until reaching 70-95% confluency at which point they are subcultured or harvested for assay use. A serial dilution of test compound is dispensed into a 96-well black clear bottom plate in triplicate. Three thousand cells are added per well in 200 μL complete growth medium in the 96-well plate. Plates are incubated for 67-72 hours at 37° C., 5% CO2, and 95% humidity. At the end of the incubation, 40 μL of a 440 μM solution of resazurin (Sigma, #199303, St. Louis, MO) in PBS is added to each well of the plate and plates are incubated for an additional 6-7 hours at 37° C., 5% CO2, and 95% humidity. Plates are read on a Synergy2 or equivalent reader (Biotek, Winooski VT) using an excitation of 540 nm and an emission of 600 nm. Data is analyzed using Prism software (GraphPad, San Diego, CA) to calculate IC50 values.
# [3] = target: A-Raf kinase (SEQ. ID No: 1) (Homo sapiens (Human), UniProt P10398, Y301D/Y302D); experiment: Biochemical Assay for A-Raf (1); details: Table J, assay version (1); read-out: ARAF (1) IC50
# Summary of the method: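 A-Raf Y301D/Y302D at 5.55 nM phosphorylates 30.1 nM MEK with 1 mM ATP in pH 7.5 Tris buffer, 1% DMSO. Activity was read continuously as NADH oxidation at 340 nm in a pyruvate kinase/lactate dehydrogenase coupled system for 6 h at 30 °C. Rates from 4–5 h were converted to percent inhibition, and IC50 came from a four-parameter fit.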
# [4] = tested on: A375 cells; experiment: A375 Cell Proliferation Assay (1); type: cell-based; details: Homo sapiens, A-375
# Summary of the method: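 Resazurin fluorescence (excitation 540 nm, emission 600 nm, after a further 5-6 h) gave IC50s from triplicate compound dilution series.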
# Sequence of A-Raf kinase (SEQ. ID No: 1) (P10398 other isoform, or with tags, fused parts or gaps Y301D (already in the parent)/Y302D (already in the parent)): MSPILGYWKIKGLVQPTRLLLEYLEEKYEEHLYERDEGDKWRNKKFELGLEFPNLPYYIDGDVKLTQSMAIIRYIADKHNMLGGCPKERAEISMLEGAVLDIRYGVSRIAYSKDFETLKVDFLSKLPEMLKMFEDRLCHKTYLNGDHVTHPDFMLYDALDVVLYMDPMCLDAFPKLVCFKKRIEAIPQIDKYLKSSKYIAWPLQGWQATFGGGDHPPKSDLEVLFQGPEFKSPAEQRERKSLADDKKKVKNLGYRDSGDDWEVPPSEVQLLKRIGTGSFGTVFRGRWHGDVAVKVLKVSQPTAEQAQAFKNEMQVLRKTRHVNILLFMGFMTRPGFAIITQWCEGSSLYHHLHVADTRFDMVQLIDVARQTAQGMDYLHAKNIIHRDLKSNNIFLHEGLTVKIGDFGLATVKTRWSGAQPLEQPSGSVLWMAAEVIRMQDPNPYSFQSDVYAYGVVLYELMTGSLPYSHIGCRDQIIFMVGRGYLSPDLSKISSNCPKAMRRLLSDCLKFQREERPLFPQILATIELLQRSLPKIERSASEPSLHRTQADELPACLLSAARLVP
# Sequence of C-Raf kinase (SEQ. ID NO: 3) (P04049 307-648 Y340D/Y341D): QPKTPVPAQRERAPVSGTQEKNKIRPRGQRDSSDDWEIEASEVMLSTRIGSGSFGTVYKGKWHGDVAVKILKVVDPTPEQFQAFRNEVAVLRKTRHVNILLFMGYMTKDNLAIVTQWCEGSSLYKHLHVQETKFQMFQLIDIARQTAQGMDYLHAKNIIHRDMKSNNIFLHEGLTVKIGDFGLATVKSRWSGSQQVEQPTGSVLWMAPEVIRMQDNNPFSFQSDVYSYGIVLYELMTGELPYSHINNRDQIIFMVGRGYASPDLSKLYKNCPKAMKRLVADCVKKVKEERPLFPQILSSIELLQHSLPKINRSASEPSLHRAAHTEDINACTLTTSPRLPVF
SMILES,IC50 [1] [nM],IC50 [2] [nM],IC50 [3] [nM],IC50 [4] [nM]
CC(=O)Nc1cc(-c2cccc(-c3cc(NC(=O)c4ccnc(C(F)(F)F)c4)c(F)cc3C)c2)ncn1 [Example 114],≤ 100,≤ 100,1000 to 10000,≤ 100
Cc1ccc(NC(=O)c2ccnc(C(F)F)c2)cc1-c1cncc(-c2ccnc(NC(=O)C3CC3)c2)n1 [Example 117],≤ 100,≤ 100,1000 to 10000,100 to 500
CC(=O)Nc1cc(-c2nccc(-c3cc(NC(=O)c4ccnc(C(C)(C)C#N)c4)ccc3C)n2)ccn1 [Example 118],≤ 100,≤ 100,500 to 1000,≤ 100
Cc1ccc(NC(=O)c2ccnc(C(F)(F)F)c2)cc1-c1ccnc(-c2ccnc(N)c2)n1 [Example 122],≤ 100,1000 to 10000,1000 to 10000,1000 to 10000
Cc1ccc(NC(=O)c2ccnc(C(F)(F)F)c2)cc1-c1cncc(-c2ccnc(NC=O)c2)n1 [Example 123],≤ 100,100 to 500,1000 to 10000,100 to 500
CC(=O)Nc1cc(-c2cncc(-c3cc(NC(=O)c4cc(C(F)(F)F)ccn4)ccc3C)n2)ccn1 [Example 124],≤ 100,≤ 100,1000 to 10000,≤ 100
CC(=O)Nc1cc(-c2cncc(-c3cc(NC(=O)c4cccc(C(C)(C)C#N)c4)ccc3C)n2)ccn1 [Example 125],≤ 100,≤ 100,1000 to 10000,≤ 100
Cc1ncc(NC(=O)c2ccnc(C(C)(C)C#N)c2)cc1-c1cccc(-c2ncnc3[nH]ncc23)c1 [Example 129],≤ 100,100 to 500,1000 to 10000,500 to 1000
Cc1ncc(NC(=O)c2ccnc(C3CC3)c2)cc1-c1cccc(-c2ncnc3[nH]ncc23)c1 [Example 131],≤ 100,1000 to 10000,1000 to 10000,1000 to 10000
CC(=O)Nc1nccc(-c2cccc(-c3cc(NC(=O)c4ccnc(C(F)(F)F)c4)ccc3C)c2)c1C#N [Example 132],≤ 100,100 to 500,1000 to 10000,500 to 1000
Cc1ccc(NC(=O)c2ccnc(C(C)(C)C#N)c2)cc1-c1cccc(-c2ccnc3[nH]ncc23)c1 [Example 134],≤ 100,≤ 100,1000 to 10000,100 to 500
CC(=O)Nc1cc(-c2cncc(-c3cc(NC(=O)c4ccnc(C(C)(C)C#N)c4)ccc3C)n2)ccn1 [Example 140],≤ 100,≤ 100,500 to 1000,≤ 100
CC(=O)Nc1cc(-c2cncc(-c3cc(NC(=O)c4ccnc(C5CC5)c4)ccc3C)n2)ccn1 [Example 145],≤ 100,≤ 100,500 to 1000,≤ 100
CC(=O)Nc1cc(-c2cncc(-c3cc(NC(=O)c4ccnc(C5(C#N)CC5)c4)ccc3C)n2)ccn1 [Example 146],≤ 100,≤ 100,500 to 1000,≤ 100
Cc1ccc(NC(=O)c2ccnc(C(C)(C)C#N)c2)cc1-c1cncc(-c2ccnc(C(=O)NC3CC3)c2)n1 [Example 148],100 to 500,500 to 1000,1000 to 10000,1000 to 10000
CC(=O)Nc1cc(-c2nccc(-c3cc(NC(=O)c4cccc(C(C)(C)C#N)c4)ccc3C)n2)ccn1 [Example 150],≤ 100,≤ 100,100 to 500,≤ 100
CC(=O)Nc1cc(-c2nccc(-c3cc(NC(=O)c4ccnc(C5(C#N)CC5)c4)ccc3C)n2)ccn1 [Example 151],≤ 100,≤ 100,100 to 500,≤ 100
CC(=O)Nc1cc(-c2nccc(-c3cc(NC(=O)c4ccnc(C5CC5)c4)ccc3C)n2)ccn1 [Example 152],≤ 100,≤ 100,500 to 1000,100 to 500
Cc1ccc(NC(=O)c2ccnc(C(C)(C)C#N)c2)cc1-c1cncc(-c2ccnc(NC(=O)CC#N)c2)n1 [Example 154],≤ 100,≤ 100,100 to 500,≤ 100

SMILES,IC50 [1] [nM],IC50 [2] [nM],IC50 [3] [nM],IC50 [4] [nM]
COCCNc1cc(-c2cccc(-c3cc(NC(=O)c4ccnc(C(F)(F)F)c4)ccc3C)c2)ncn1 [Example 156],≤ 100,500 to 1000,1000 to 10000,1000 to 10000
CC(=O)Nc1cc(-c2nccc(-c3cc(NC(=O)c4ccnc(C(F)(F)F)c4)cnc3C)n2)ccn1 [Example 157],≤ 100,100 to 500,1000 to 10000,1000 to 10000
CNC(=O)c1cc(-c2cc(-c3cc(NC(=O)c4ccnc(C(C)(C)C#N)c4)cnc3C)ccn2)ccn1 [Example 158],100 to 500,100 to 500,1000 to 10000,≤ 100
CNc1cc(-c2cccc(-c3cc(NC(=O)c4ccnc(C(C)(C)C#N)c4)ccc3C)c2)ncn1 [Example 160],≤ 100,≤ 100,1000 to 10000,100 to 500
Cc1ccc(NC(=O)c2ccnc(C(C)(C)C#N)c2)cc1-c1cncc(-c2ccnc(NC=O)c2)n1 [Example 161],≤ 100,≤ 100,500 to 1000,≤ 100
Cc1ccc(NC(=O)c2ccnc(C(C)(C)C#N)c2)cc1-c1ccnc(-c2ccnc(C(=O)NC3CC3)c2)c1 [Example 162],100 to 500,100 to 500,1000 to 10000,100 to 500
CNC(=O)c1cc(-c2cc(-c3cc(NC(=O)c4ccnc(C(C)(C)C#N)c4)ccc3C)cc(C3CC3)n2)ccn1 [Example 163],100 to 500,≤ 100,1000 to 10000,≤ 100
CC(=O)Nc1cc(-c2nccc(-c3cc(NC(=O)c4cnnc(C5CC5)c4)ccc3C)n2)ccn1 [Example 168],≤ 100,500 to 1000,1000 to 10000,500 to 1000
Cc1ccc(NC(=O)c2ccnc(C(C)(C)C#N)c2)cc1-c1nccc(-c2ccnc(NC(=O)C3CC3)c2)n1 [Example 169],≤ 100,≤ 100,100 to 500,≤ 100
CNC(=O)c1cc(-c2cccc(-c3cc(NC(=O)c4ccnc(C(C)(C)C#N)c4)ccc3C)c2)ncn1 [Example 171],≤ 100,≤ 100,1000 to 10000,≤ 100
Cc1ncc(NC(=O)c2ccnc(C(C)(C)C#N)c2)cc1-c1cccc(-c2ccnc(NC(=O)C3CC3)c2)n1 [Example 172],≤ 100,≤ 100,1000 to 10000,≤ 100
Cc1ccc(NC(=O)c2cccc(C(C)(C)C#N)c2)cc1-c1cccc(-c2cc(NC(=O)C3CC3)ncn2)c1 [Example 174],≤ 100,≤ 100,1000 to 10000,≤ 100
CNC(=O)c1cc(-c2nccc(-c3cc(NC(=O)c4ccnc(C5(C#N)CC5)c4)ccc3C)n2)ccn1 [Example 175],≤ 100,≤ 100,1000 to 10000,100 to 500
CNC(=O)c1cc(-c2cc(-c3cc(NC(=O)c4ccnc(C(C)(C)C#N)c4)c(F)cc3C)ccn2)ccn1 [Example 176],≤ 100,≤ 100,1000 to 10000,≤ 100
CNC(=O)c1cc(-c2ccnc(-c3cc(NC(=O)c4ccnc(C(C)(C)C#N)c4)ccc3C)n2)ccn1 [Example 177],≤ 100,≤ 100,1000 to 10000,100 to 500
CNC(=O)c1cc(-c2cc(-c3cc(NC(=O)c4ccnc(C5(C#N)CC5)c4)ccc3C)ncn2)ccn1 [Example 178],≤ 100,≤ 100,1000 to 10000,100 to 500
Cc1cc(F)c(NC(=O)c2ccnc(C(C)(C)C#N)c2)cc1-c1ccnc(-c2ccnc(NC(=O)C3CC3)c2)n1 [Example 179],≤ 100,≤ 100,500 to 1000,≤ 100
Cc1ccc(NC(=O)c2ccnc(C3(C#N)CC3)c2)cc1-c1ccnc(-c2ccnc(NC(=O)C3CC3)c2)n1 [Example 180],≤ 100,≤ 100,100 to 500,≤ 100
